Values quoted from earlier work, collected in patent US20200016150A1, “TREATMENT OF THE PRURITIC SYMPTOMS OF LIVER DISEASE” (TREVI THERAPEUTICS, INC., priority 2018, published 2020).

Settings: injectable formulations (i.e., IV or IM or SC)

For `Cl.Oc1ccc2c3c1OC1[C@@H](O)CC[C@@]4(O)[C@@H](C2)N(CC2CCC2)CC[C@]314` (stereo partly drawn) [nalbuphine, 17-(cyclobutylmethyl)-4,5α-epoxymorphinan-3, 6α, 14-triol, hydrochloride], the half-life is given as 2 to 3 h.
